Counter-ions that a name gives are not always drawn.
How the values were obtained:
[1] = test system: CTX-induced immunocompromised mouse model; type: in vivo
Description: (§1) SPF BALB/c male mice that each were 6 to 8 weeks old and weighed 18 g to 22 g were provided by Liaoning Changsheng Biotechnology Co., Ltd., with animal license No.: SCXK (Liao) 2020-0001. The BALB/c mice were randomly divided into 7 groups, with 8 mice in each group. Mice in the blank group and model group were each orally gavaged with 0.4 mL of NS, mice in the positive control group were each orally gavaged with levamisole hydrochloride (LEV) (10 mg·kg^−1), and mice in the B. lactis strain XLTG11 dose groups were orally gavaged with 0.4 mL of B. lactis strain XLTG11 suspensions at doses of 1×10^9 cfu, 1×10^8 cfu, 1×10^7 cfu, and 1×10^6 cfu per mouse, respectively. The mice were orally gavaged continuously for 28 d, during which the mice could eat and drink freely. On day 23 and day 24 after the oral gavage, mice in the model group, positive control group, and B. lactis strain XLTG11 dose groups were intraperitoneally injected with CTX (40 mg·kg^−1), and mice in the blank group were intraperitoneally injected with an equal volume of NS.

[2] = test system: CTX-induced immunocompromised mouse model; test: Pathological changes of small intestinal mucosal tissue (HE staining) in CTX mice; type: in vivo, BALB/c male mice; settings: LEV 10 mg·kg^−1, CTX mice, FIG. 9
Description: as §1

[3] = test system: CTX-induced immunocompromised mouse model; test: Villus height of small intestinal mucosa in CTX mice; type: in vivo, BALB/c male mice; settings: LEV 10 mg·kg^−1, vs model group, P<0.05, FIG. 10
Description: as §1

[4] = test system: CTX-induced immunocompromised mouse model; type: in vivo; settings: serum, CTX mice, LEV 10 mg·kg^−1
Description: as §1
min after the last oral gavage to mice in each group, eyeballs were removed, the whole blood was collected and centrifuged at 3000 r·min^−1 for 10 min, and the resulting serum was collected, dispensed, and frozen in a −80° C. refrigerator for test. Serum IgA, IgG, IL-2, IL-6, IFN-γ, and TNF-α levels were determined with an ELISA kit, and specific operation steps were conducted according to the instructions.

In the case of `c1ccc([C@H]2CN3CCSC3=N2)cc1` [Positive control, levamisole hydrochloride], the Toe thickness difference ([1]; LEV 10 mg·kg^−1, CTX mice, before vs 24 h after SRBC injection) is reported as 0.054 cm, the Goblet cell number ([1]; LEV 10 mg·kg^−1, CTX mice, number of goblet cells/epithelial length (mm)) is reported as 25.22 and the Spleen index ([1]; LEV 10 mg·kg^−1 oral gavage 28 d, CTX mice, spleen mass (mg)/body mass (g)) is reported as 2.97. For the same compound, the Thymus index ([1]; LEV 10 mg·kg^−1 oral gavage 28 d, CTX mice, thymus mass (mg)/body mass (g)) was 1.42, the “damage of the small intestinal mucosal tissue” value [2] was “improved” and the “small intestinal villus height” value [3] was “increased”. For the same compound, the IFN-γ [4] was 466.78 ± 62.60 ng/L, the IL-2 [4] was 666.32 ± 134.02 ng/L and the IL-6 [4] was 77.12 ± 17.49 pg/mL. The IgA [4] was 55.95 ± 3.66 ng/mL, the IgG [4] was 467.59 ± 54.35 ng/mL and the TNF-α [4] was 496.86 ± 49.31 ng/L.

Reference: US11959067B2, “Bifidobacterium lactis strain for preventing or treating colitis and method for preventing or alleviating colitis” (HARBIN SUNFLOWER PHARMACEUTICAL CO., LTD., priority 2021, dated 2024)
